We go through two molecules from patent US11464780B2, “Pyrazolopyrimidine derivative and use thereof” (Simcere Pharmaceutical Co. Ltd., priority 2018, dated 2022).

Series [1] addresses T1, Ba/F3 SLC34A2-ROS1-G2032R stably transfected cell line (Homo sapiens, UniProt P08922, G2032R, cells depend on it).
T1 construct: fused on or other part: O95436 (Sodium-dependent phosphate transport protein 2B)
Kind of series: Cell proliferation inhibition (CellTiter-Glo). The format is cell-based. The note with it: 72 hours, read-out: The half maximal inhibitory concentration IC50 against cells, Ba/F3 SLC34A2-ROS1-G2032R.

Series [2] in a line: In vivo pharmacokinetic test in mice. Also noted: species or system male CD-1 mice. The note with it: for AUC(0-t): read-out: Area under the curve AUC0-last; for Cmax: read-out: Peak concentration Cmax. The essentials:
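Male CD-1 mice, 7-9 weeks, given a single IV (3 mg/kg) or intragastric dose in 5% DMSO/10% solutol/85% water. Plasma drug levels measured by LC/MS/MS at multiple time points to derive PK parameters.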

The nature of series [3]: In vivo cassette pharmacokinetic test in mice. Also noted: species or system male CD-1 mice. Particulars: cassette, mice. How it is done: The dose of the compounds: […] PO dose of 3 mg/kg, and administration volume of 3 mL/kg.
In series [4] the test system is human colon cancer cell line KM12 subcutaneous xenograft tumor. Kind of series: In vivo efficacy, subcutaneous xenograft tumor of human colon cancer KM12. Also noted: species or system BALB/c mouse. The note with it: PO. How it is done: Experimental object: evaluation of the in vivo efficacy of test drugs such as WX002A on subcutaneous xenograft tumor of human colon cancer cell line KM12 cell in BALB/c mouse model.
(§1) Drug preparation: The compounds were all prepared into clear solutions with 5% DMSO+10% solutol+85% water as solvent for administration in the PO (intragastric) group.
Tumor measurement: the tumor diameters were measured with a vernier caliper twice a week. The calculation formula of tumor volume is: V=0.5×a×b^2, wherein a and b represent the long diameter and short diameter of the tumor, respectively. The anti-tumor efficacy of the compounds is evaluated by TGI (%). TGI (%) reflects tumor growth inhibition rate.
Statistical analysis: The statistical analysis was based on the relative tumor volume and tumor weight at the end of the experiment using SPSS software. One-way ANOVA was used to analyze the comparison between multiple groups. […] P<0.05 was considered to indicate significant difference.

Series [5] concerns human lung cancer LU-01-0414 subcutaneous xenograft tumor. Description: In vivo efficacy, subcutaneous xenograft tumor of human lung cancer LU-01-0414. Particulars: LU-01-0414 xenograft, 14th day, PO. Also noted: species or system BALB/c mouse. The method, then:
Experimental object: evaluation of the in vivo efficacy of test drugs such as WX002A on subcutaneous xenograft tumor of human lung cancer LU-01-0414 in BALB/c mouse model.
as §1
Tumor measurement: the tumor diameters were measured with a vernier caliper twice a week. The calculation formula of tumor volume is: V=0.5×a×b^2, wherein a and b represent the long diameter and short diameter of the tumor, respectively. The anti-tumor efficacy of the compounds was evaluated by TGI (%). TGI (%) reflects tumor growth inhibition rate.
Statistical analysis: the statistical analysis was based on the relative tumor volume and tumor weight at the end of the experiment using SPSS software. One-way ANOVA was used to analyze the comparison between multiple groups. […] P<0.05 was considered to indicate significant difference.

[6] abbreviates: male, CD-1, mouse, plasma, PO dose of 10 mL/kg.

SMILES strings stand for the structures. Like-named read-outs stand apart in the source and are kept apart here.

T1 sequence (P08922 whole entry G2032R, the tested form may be a part): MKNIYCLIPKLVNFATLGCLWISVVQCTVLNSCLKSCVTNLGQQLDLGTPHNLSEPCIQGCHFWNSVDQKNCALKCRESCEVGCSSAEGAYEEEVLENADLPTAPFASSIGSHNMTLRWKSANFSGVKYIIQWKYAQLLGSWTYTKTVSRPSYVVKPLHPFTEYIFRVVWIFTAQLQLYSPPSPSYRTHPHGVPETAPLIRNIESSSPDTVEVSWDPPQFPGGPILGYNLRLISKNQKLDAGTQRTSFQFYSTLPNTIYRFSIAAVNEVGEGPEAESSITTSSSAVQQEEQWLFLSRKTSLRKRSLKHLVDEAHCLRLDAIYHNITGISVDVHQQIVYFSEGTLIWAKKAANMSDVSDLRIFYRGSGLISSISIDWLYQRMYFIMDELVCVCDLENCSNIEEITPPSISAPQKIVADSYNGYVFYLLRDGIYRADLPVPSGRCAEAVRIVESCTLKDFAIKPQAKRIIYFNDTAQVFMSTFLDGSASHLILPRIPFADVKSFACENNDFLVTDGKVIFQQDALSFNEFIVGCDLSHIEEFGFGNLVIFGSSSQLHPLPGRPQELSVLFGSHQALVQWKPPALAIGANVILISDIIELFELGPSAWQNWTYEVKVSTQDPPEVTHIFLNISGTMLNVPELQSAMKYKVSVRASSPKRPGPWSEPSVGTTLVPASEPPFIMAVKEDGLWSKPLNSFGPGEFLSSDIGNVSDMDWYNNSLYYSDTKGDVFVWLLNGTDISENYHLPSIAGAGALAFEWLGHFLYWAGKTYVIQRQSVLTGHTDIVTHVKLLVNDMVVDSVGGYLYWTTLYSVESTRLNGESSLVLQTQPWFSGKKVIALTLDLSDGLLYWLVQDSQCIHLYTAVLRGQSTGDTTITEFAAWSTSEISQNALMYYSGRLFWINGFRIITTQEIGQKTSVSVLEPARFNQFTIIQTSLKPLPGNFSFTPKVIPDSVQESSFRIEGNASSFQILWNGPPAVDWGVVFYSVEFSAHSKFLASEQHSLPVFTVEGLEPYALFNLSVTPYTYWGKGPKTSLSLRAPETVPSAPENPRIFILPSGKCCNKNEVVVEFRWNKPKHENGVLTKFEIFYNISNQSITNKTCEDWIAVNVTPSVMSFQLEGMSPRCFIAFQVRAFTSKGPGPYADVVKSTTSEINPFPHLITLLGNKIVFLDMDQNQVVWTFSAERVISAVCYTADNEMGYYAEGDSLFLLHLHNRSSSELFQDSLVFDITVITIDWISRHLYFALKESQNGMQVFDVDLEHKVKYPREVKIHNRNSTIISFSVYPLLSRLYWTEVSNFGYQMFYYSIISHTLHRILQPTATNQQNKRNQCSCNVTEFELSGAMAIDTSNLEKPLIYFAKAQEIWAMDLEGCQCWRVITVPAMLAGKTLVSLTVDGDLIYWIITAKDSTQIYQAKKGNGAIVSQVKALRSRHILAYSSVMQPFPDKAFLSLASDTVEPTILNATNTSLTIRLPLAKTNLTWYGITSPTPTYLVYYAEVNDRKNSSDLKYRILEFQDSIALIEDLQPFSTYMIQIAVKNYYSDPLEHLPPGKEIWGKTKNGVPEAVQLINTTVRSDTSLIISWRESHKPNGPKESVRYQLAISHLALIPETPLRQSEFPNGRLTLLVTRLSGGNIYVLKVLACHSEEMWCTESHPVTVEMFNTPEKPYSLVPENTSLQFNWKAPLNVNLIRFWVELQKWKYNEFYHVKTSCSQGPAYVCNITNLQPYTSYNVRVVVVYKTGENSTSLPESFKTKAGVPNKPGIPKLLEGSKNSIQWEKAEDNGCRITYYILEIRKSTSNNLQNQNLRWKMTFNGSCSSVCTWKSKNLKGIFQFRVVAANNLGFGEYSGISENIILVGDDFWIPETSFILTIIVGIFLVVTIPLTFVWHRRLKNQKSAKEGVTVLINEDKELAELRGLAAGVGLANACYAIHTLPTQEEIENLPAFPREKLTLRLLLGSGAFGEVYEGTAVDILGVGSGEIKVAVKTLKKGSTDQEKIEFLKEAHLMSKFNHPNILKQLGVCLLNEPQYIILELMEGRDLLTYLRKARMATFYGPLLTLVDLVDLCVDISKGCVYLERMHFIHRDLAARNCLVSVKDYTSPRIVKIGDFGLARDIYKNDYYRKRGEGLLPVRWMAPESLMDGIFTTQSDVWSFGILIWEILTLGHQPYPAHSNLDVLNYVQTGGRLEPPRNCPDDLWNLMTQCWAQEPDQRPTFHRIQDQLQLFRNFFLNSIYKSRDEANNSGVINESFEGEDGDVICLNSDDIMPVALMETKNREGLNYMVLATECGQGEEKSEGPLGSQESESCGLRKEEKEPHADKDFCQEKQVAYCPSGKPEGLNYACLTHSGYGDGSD

Usually bioavailability stands for the share of a dose that reaches the circulation, judged against a reference dose that is usually intravenous. Consider `O=C1N[C@@H]2COC[C@@H]2Oc2ncc(F)cc2[C@H]2CCON2c2ccn3ncc1c3n2` [WX008A], for which the GI50 in series [1] came out at 0.0385 µM. Further, in series [2] (IV dose of 3 mg/kg), the “Apparent clearance Cl” value is 6.7 mL/min/kg. For the same molecule, the Vd in series [2] (male, CD-1, mouse, plasma, IV dose of 3 mg/kg, read-out: Apparent volume of distribution Vd) amounted to 0.62 L/kg. The AUC(0-t) in series [2] (male, CD-1, mouse, plasma, IV dose of 3 mg/kg) was determined as 18.2 µM·h. The half-life in series [2] (male, CD-1, mouse, plasma, IV dose of 3 mg/kg, read-out: Half life T1/2 (converted)) is 68.4 min. Besides, the bioavailability in series [2] (male, CD-1, mouse, plasma, PO dose of 10 mL/kg vs IV 3 mg/kg, read-out: Bioavailability F %) came out at 65%. For the same molecule, in series [2] (setting [6]), the AUC(0-t) is 39.6 µM·h and the Cmax stood at 12.2 µM. Further, the Tmax in series [2] (male, CD-1, mouse, plasma, PO dose of 10 mL/kg, read-out: Time of peak concentration Tmax) came out at 15 min.

By T/C is commonly meant the ratio of treated to control. Regarding `O=C1NC2(CC2)COc2ncc(F)cc2[C@H]2CCON2c2ccn3ncc1c3n2` [WX002A], the GI50 in series [1] turned out to be 0.0161 µM. Further, the “Apparent clearance Cl” value in series [3] (IV @ 1 mpk) amounted to 6.3 mL/min/kg; in series [2] (IV dose of 3 mg/kg), 7.2 mL/min/kg. Further, the results for the “Apparent volume of distribution Vd” value in series [3] (IV @ 1 mpk) and in series [2] (IV dose of 3 mg/kg) were 0.57 L/kg and 0.49 L/kg, respectively. In addition, the “Area under curve AUC0-inf” value in series [3] (IV @ 1 mpk) is 6.689 µM·h; in series [3] (PO @ 3 mpk) it was 19.769 µM·h. The “Half life T1/2” value in series [3] (IV @ 1 mpk) is 52.8 min; in series [2] (IV dose of 3 mg/kg) it was 45 min. In addition, the C0 in series [3] (IV @ 1 mpk, plasma, read-out: Initial concentration C0) is 3.71 µM. Also, the “Bioavailability F %” value stood at 76% in series [3] (PO @ 3 mpk vs IV @ 1 mpk) and 51% in series [2] (PO dose of 10 mL/kg vs IV 3 mg/kg). For the same molecule, the entries for the “Time of peak concentration Tmax” value in series [3] (PO @ 3 mpk) and in series [2] (PO dose of 10 mL/kg) were 15 min and 30 min, respectively. Also, in series [3] (PO @ 3 mpk, CSF, 0.5 h), the “drug concentration in cerebrospinal fluid at 0.5 hour CSF@0.5 h” value was 63 nmol/kg. In addition, the “drug concentration in cerebrospinal fluid at 2 hour CSF@2 h” value in series [3] (PO @ 3 mpk, CSF, 2 h) is given as 21 nmol/kg. Further, the “drug concentration in brain at 0.5 h Brain@0.5 h” value in series [3] (PO @ 3 mpk, brain, 0.5 h) is 663 nmol/kg. The “drug concentration in brain at 2 h Brain@2 h” value in series [3] (PO @ 3 mpk, brain, 2 h) is reported as 343 nmol/kg. The Cmax in series [3] (PO @ 3 mpk, read-out: Peak concentration Cmax) turned out to be 4.74 µM; in series [2] (PO dose of 10 mL/kg), 9.14 µM. Also, the “Area under the curve AUC0-last” value was 17.502 µM·h in series [2] (IV dose of 3 mg/kg) and 29.787 µM·h in series [2] (PO dose of 10 mL/kg). Besides, the T/C came to 33.18% in series [4] (dose of 3 mg/kg); 15.63% in series [4] (dose of 15 mg/kg); 9.57% in series [5] (3 mg/kg BID); 3.07% in series [5] (15 mg/kg BID); 1.87% in series [5] (30 mg/kg BID). Moreover, the TGI in series [4] (dose of 3 mg/kg) turned out to be 71.23%; in series [4] (dose of 15 mg/kg), 88.61%; in series [5] (3 mg/kg BID), 118.02%; in series [5] (15 mg/kg BID), 126.88%; in series [5] (30 mg/kg BID), 128.36%.
